Results from publication PMC10221074, “Functional Profiling of the A-Family of Venom Peptides from the Wolf Spider Lycosa shansia” (Toxins, 2023).

Assays:
[1] = test system: B/Malaysia/2506/2004 (B-Mal); assay type: cell-based, influenza virus
A/Hamburg/05/2009 (H1N1) = assay type: cell-based, influenza virus
A/Hessen/1/2003 (H3N2) = assay type: cell-based, influenza virus
[2] = test system: panel of seven bacterial strains; experiment: Antibacterial growth assay (OD600), statements on the whole panel; assay type: cell-based; details: growth after 48 h
[3] = test system: Pseudomonas aeruginosa DSM 1117; experiment: Antibacterial growth assay (OD600); details: for Bacterial growth relative to medium, P. aeruginosa (1117), replicate 1 / Bacterial growth relative to medium, P. aeruginosa (1117), replicate 2 / Bacterial growth relative to medium, P. aeruginosa (1117), replicate 3: OD600, medium = 100, MH II broth; for Bacterial growth relative to medium, P. aeruginosa (1117), replicate 1: replicate column 1; for Bacterial growth relative to medium, P. aeruginosa (1117), replicate 2: replicate column 2; for Bacterial growth relative to medium, P. aeruginosa (1117), replicate 3: replicate column 3
Procedure: (§1) Cryo-conserved cultures of selected bacterial strains (Table 4) were transferred to Tryptic Soy Agar (TSA) plates (Carl Roth) with a sterile inoculation loop, sealed with Parafilm (BEMIS, Neenah, WI, USA), and incubated for 1–2 days at 37 °C depending on growth. Single colonies were picked and transferred into 2–3 mL of the Mueller–Hinton II (MH II) broth (BD, Heidelberg, Germany). The bacteria were cultivated overnight, subcultured on fresh medium and grown for 3–4 h before testing at 37 °C, with shaking at 180 rpm. We measured the optical density at 600 nm (OD600) of 1 mL of the bacterial suspensions in polystyrene cuvettes (SARSTED, Nümbrecht, Germany) using an Ultrospec 10 spectrophotometer (Biochrome, Cambridge, UK). We then diluted them with the MH II medium to the preferred OD600 (Table 2). The peptides were dissolved in DMSO to generate 10 mmol/L stocks and diluted with the MH II medium to 200 µM before the assay. We used 10 µg/mL (~40 µg/mL for S. epidermidis) gentamicin and colistin (Sigma-Aldrich, Taufkirchen, Germany), DMSO and the medium only as controls. The bacteria were transferred to 96-multiwell plates with a final volume of 100 µL per well (50 µL bacterial suspension, and 50 µL test peptide). The OD600 was measured at 0, 24 and 48 h using a BioTek Eon microplate reader followed by analysis with Gen5 v2.09.

[4] = test system: Pseudomonas aeruginosa DSM 50071; experiment: Antibacterial growth assay (OD600); details: for Bacterial growth relative to medium, P. aeruginosa (50071), replicate 1 / Bacterial growth relative to medium, P. aeruginosa (50071), replicate 2 / Bacterial growth relative to medium, P. aeruginosa (50071), replicate 3: OD600, medium = 100, MH II broth; for Bacterial growth relative to medium, P. aeruginosa (50071), replicate 1: replicate column 1; for Bacterial growth relative to medium, P. aeruginosa (50071), replicate 2: replicate column 2; for Bacterial growth relative to medium, P. aeruginosa (50071), replicate 3: replicate column 3
Procedure: as §1

[5] = test system: Micrococcus luteus DSM 20030; experiment: Antibacterial growth assay (OD600); details: OD600, medium = 100, MH II broth; for Bacterial growth relative to medium, M. luteus, replicate 1: replicate column 1; for Bacterial growth relative to medium, M. luteus, replicate 2: replicate column 2; for Bacterial growth relative to medium, M. luteus, replicate 3: replicate column 3
[6] = test system: Staphylococcus aureus DSM 2569; experiment: Antibacterial growth assay (OD600); details: OD600, medium = 100, MH II broth; for Bacterial growth relative to medium, S. aureus, replicate 1: replicate column 1; for Bacterial growth relative to medium, S. aureus, replicate 2: replicate column 2; for Bacterial growth relative to medium, S. aureus, replicate 3: replicate column 3
[7] = test system: Escherichia coli BL21(DE3); experiment: Antibacterial growth assay (OD600); details: OD600, medium = 100, MH II broth; for Bacterial growth relative to medium, E. coli, replicate 1: replicate column 1; for Bacterial growth relative to medium, E. coli, replicate 2: replicate column 2; for Bacterial growth relative to medium, E. coli, replicate 3: replicate column 3
[8] = test system: Listeria monocytogenes DSM 20600; experiment: Antibacterial growth assay (OD600); details: for Bacterial growth relative to medium, L. monocytogenes, replicate 1 / Bacterial growth relative to medium, L. monocytogenes, replicate 2 / Bacterial growth relative to medium, L. monocytogenes, replicate 3: OD600, medium = 100, MH II broth; for Bacterial growth relative to medium, L. monocytogenes, replicate 1: replicate column 1; for Bacterial growth relative to medium, L. monocytogenes, replicate 2: replicate column 2; for Bacterial growth relative to medium, L. monocytogenes, replicate 3: replicate column 3
Procedure: as §1

[9] = test system: Staphylococcus epidermidis DSM 28319; experiment: Antibacterial growth assay (OD600); details: for Bacterial growth relative to medium, S. epidermidis, replicate 1: replicate column 1; for Bacterial growth relative to medium, S. epidermidis, replicate 2: replicate column 2; for Bacterial growth relative to medium, S. epidermidis, replicate 3: replicate column 3
[10] = 37 °C, peptide 200 µM mixed 50 µL + 50 µL with bacteria, Figure 7: 48 h
[11] = OD600, medium = 100, MH II broth, 37 °C, peptide 200 µM mixed 50 µL + 50 µL with bacteria, Figure 7: 48 h
[12] = antibiotic control, table line says 10µg/mL (methods: ~40 µg/mL for S. epidermidis), OD600, medium = 100

SLFGLLDLVKSKVGQTGLL [LS-AMP-A1]
Viability of infected cells relative to aprotinin, Replicate 1 [1]: 0.04827
Viability of infected cells relative to aprotinin, Replicate 2 [1]: 0.03878
Viability of infected cells relative to aprotinin, Replicate 3 [1]: 0.05872
Viability of infected cells relative to aprotinin, Replicate 1 (A/Hamburg/05/2009 (H1N1)): 0.03121
Viability of infected cells relative to aprotinin, Replicate 2 (A/Hamburg/05/2009 (H1N1)): 0.03837
Viability of infected cells relative to aprotinin, Replicate 3 (A/Hamburg/05/2009 (H1N1)): 0.04316
Viability of infected cells relative to aprotinin, Replicate 1 (A/Hessen/1/2003 (H3N2)): 0.185
Viability of infected cells relative to aprotinin, Replicate 2 (A/Hessen/1/2003 (H3N2)): 0.1781
Viability of infected cells relative to aprotinin, Replicate 3 (A/Hessen/1/2003 (H3N2)): 0.1313
Antibacterial activity over the panel (in words) [2]: limited activity
Bacterial growth relative to medium, P. aeruginosa (1117), replicate 1 [3, 10]: 79.0357
Bacterial growth relative to medium, P. aeruginosa (1117), replicate 2 [3, 10]: 70.5187
Bacterial growth relative to medium, P. aeruginosa (1117), replicate 3 [3, 10]: 73.1051
Bacterial growth relative to medium, P. aeruginosa (50071), replicate 1 [4, 10]: 100.105
Bacterial growth relative to medium, P. aeruginosa (50071), replicate 2 [4, 10]: 111.979
Bacterial growth relative to medium, P. aeruginosa (50071), replicate 3 [4, 10]: 89.7927
Bacterial growth relative to medium, M. luteus, replicate 1 [5, 10]: 73.9935
Bacterial growth relative to medium, M. luteus, replicate 2 [5, 10]: 135.023
Bacterial growth relative to medium, M. luteus, replicate 3 [5, 10]: 50.2152
Bacterial growth relative to medium, S. aureus, replicate 1 [6, 10]: 106.033
Bacterial growth relative to medium, S. aureus, replicate 2 [6, 10]: 110.791
Bacterial growth relative to medium, S. aureus, replicate 3 [6, 10]: 108.193
Bacterial growth relative to medium, E. coli, replicate 1 [7, 10]: 153.553
Bacterial growth relative to medium, E. coli, replicate 2 [7, 10]: 169.757
Bacterial growth relative to medium, E. coli, replicate 3 [7, 10]: 114.343
Bacterial growth relative to medium, L. monocytogenes, replicate 1 [8, 10]: 93.4804
Bacterial growth relative to medium, L. monocytogenes, replicate 2 [8, 10]: 90.3626
Bacterial growth relative to medium, L. monocytogenes, replicate 3 [8, 10]: 102.296
Bacterial growth relative to medium, S. epidermidis, replicate 1 [9, 11]: 132.924
Bacterial growth relative to medium, S. epidermidis, replicate 2 [9, 11]: 152.819
Bacterial growth relative to medium, S. epidermidis, replicate 3 [9, 11]: 103.22

SLLGLLDVVKSKIGQTG [LS-AMP-A14]
Viability of infected cells relative to aprotinin, Replicate 1 [1]: 0.05534
Viability of infected cells relative to aprotinin, Replicate 2 [1]: 0.06456
Viability of infected cells relative to aprotinin, Replicate 3 [1]: 0.1102
Viability of infected cells relative to aprotinin, Replicate 1 (A/Hamburg/05/2009 (H1N1)): 0.03385
Viability of infected cells relative to aprotinin, Replicate 2 (A/Hamburg/05/2009 (H1N1)): 0.02545
Viability of infected cells relative to aprotinin, Replicate 3 (A/Hamburg/05/2009 (H1N1)): 0.02099
Viability of infected cells relative to aprotinin, Replicate 1 (A/Hessen/1/2003 (H3N2)): 0.07143
Viability of infected cells relative to aprotinin, Replicate 2 (A/Hessen/1/2003 (H3N2)): 0.146
Viability of infected cells relative to aprotinin, Replicate 3 (A/Hessen/1/2003 (H3N2)): 0.0602
Viability of infected cells relative to aprotinin, Replicate 4 (A/Hessen/1/2003 (H3N2); […], replicate 4 (additional internal control)): 0.04395
Bacterial growth relative to medium, P. aeruginosa (1117), replicate 1 [3, 10]: 84.8429
Bacterial growth relative to medium, P. aeruginosa (1117), replicate 2 [3, 10]: 62.4783
Bacterial growth relative to medium, P. aeruginosa (1117), replicate 3 [3, 10]: 58.9547
Antibacterial activity (in words) ([3]; P. aeruginosa DSM 1117, growth after 48 h): weak activity
Bacterial growth relative to medium, P. aeruginosa (50071), replicate 1 [4, 10]: 100.972
Bacterial growth relative to medium, P. aeruginosa (50071), replicate 2 [4, 10]: 116.001
Bacterial growth relative to medium, P. aeruginosa (50071), replicate 3 [4, 10]: 81.6852
Antibacterial activity (in words) ([4]; P. aeruginosa DSM 50071, growth after 48 h): weak activity
Bacterial growth relative to medium, M. luteus, replicate 1 [5, 10]: 101.208
Bacterial growth relative to medium, M. luteus, replicate 2 [5, 10]: 114.302
Bacterial growth relative to medium, M. luteus, replicate 3 [5, 10]: 44.4763
Bacterial growth relative to medium, S. aureus, replicate 1 [6, 10]: 81.4506
Bacterial growth relative to medium, S. aureus, replicate 2 [6, 10]: 83.1916
Bacterial growth relative to medium, S. aureus, replicate 3 [6, 10]: 66.5171
Bacterial growth relative to medium, E. coli, replicate 1 [7, 10]: 109.705
Bacterial growth relative to medium, E. coli, replicate 2 [7, 10]: 98.8412
Bacterial growth relative to medium, E. coli, replicate 3 [7, 10]: 96.3776
Antibacterial activity (in words) ([8]; L. monocytogenes DSM 20600, growth after 48 h): more active
Bacterial growth relative to medium, L. monocytogenes, replicate 1 [8, 10]: 102.734
Bacterial growth relative to medium, L. monocytogenes, replicate 2 [8, 10]: 82.6703
Bacterial growth relative to medium, L. monocytogenes, replicate 3 [8, 10]: 49.785
Bacterial growth relative to medium, S. epidermidis, replicate 1 [9, 11]: 97.145
Bacterial growth relative to medium, S. epidermidis, replicate 2 [9, 11]: 104.641
Bacterial growth relative to medium, S. epidermidis, replicate 3 [9, 11]: 74.4979

colistin [Polymyx, reference compound]
Bacterial growth relative to medium, P. aeruginosa (1117), replicate 1 ([3]; antibiotic control 10µg/mL): 8.3082
Bacterial growth relative to medium, P. aeruginosa (1117), replicate 2 ([3]; antibiotic control 10µg/mL): 7.355
Bacterial growth relative to medium, P. aeruginosa (1117), replicate 3 ([3]; antibiotic control 10µg/mL): 3.543
Bacterial growth relative to medium, P. aeruginosa (50071), replicate 1 ([4]; antibiotic control 10µg/mL): 5.416
Bacterial growth relative to medium, P. aeruginosa (50071), replicate 2 ([4]; antibiotic control 10µg/mL): 11.2545
Bacterial growth relative to medium, P. aeruginosa (50071), replicate 3 ([4]; antibiotic control 10µg/mL): 11.5437
Bacterial growth relative to medium, M. luteus, replicate 1 ([5]; antibiotic control 10µg/mL): 34.787
Bacterial growth relative to medium, M. luteus, replicate 2 ([5]; antibiotic control 10µg/mL): 53.8113
Bacterial growth relative to medium, M. luteus, replicate 3 ([5]; antibiotic control 10µg/mL): 47.1539
Bacterial growth relative to medium, S. aureus, replicate 1 ([6]; antibiotic control 10µg/mL): 85.0041
Bacterial growth relative to medium, S. aureus, replicate 2 ([6]; antibiotic control 10µg/mL): 99.7935
Bacterial growth relative to medium, S. aureus, replicate 3 ([6]; antibiotic control 10µg/mL): 95.4465
Bacterial growth relative to medium, E. coli, replicate 1 ([7]; antibiotic control 10µg/mL): 15.553
Bacterial growth relative to medium, E. coli, replicate 2 ([7]; antibiotic control 10µg/mL): 16.1645
Bacterial growth relative to medium, E. coli, replicate 3 ([7]; antibiotic control 10µg/mL): 11.9401
Bacterial growth relative to medium, L. monocytogenes, replicate 1 ([8]; antibiotic control 10µg/mL): 82.3087
Bacterial growth relative to medium, L. monocytogenes, replicate 2 ([8]; antibiotic control 10µg/mL): 64.4034
Bacterial growth relative to medium, L. monocytogenes, replicate 3 ([8]; antibiotic control 10µg/mL): 78.447
Bacterial growth relative to medium, S. epidermidis, replicate 1 [9, 12]: 77.611
Bacterial growth relative to medium, S. epidermidis, replicate 2 [9, 12]: 72.7124
Bacterial growth relative to medium, S. epidermidis, replicate 3 [9, 12]: 81.8478
